From PMC5124248, “Antitumor activity of TY-011 against gastric cancer by inhibiting Aurora A, Aurora B and VEGFR2 kinases” (Journal of Experimental & Clinical Cancer Research : CR, 2016)
Like-named read-outs stand apart in the source and are kept apart here.

How the values were obtained:
[1] = target: T1, VEGFR2 (Homo sapiens, UniProt P35968); assay: HTRF KinEASE-TK kinase assay, VEGFR2; assay type: biochemical; settings: mean ± SD of three independent experiments
T1 construct: purchased Carna Biosciences (Kobe, Japan)
Text: The inhibition of TY-011 on activity of Aurora A, Aurora B and VEGFR2 was characterized by HTRF® KinEASE™-STK/TK kit according to the manufacturer’s instructions (Cisbio Assays, Codolet, France). Aurora A and Aurora B were gifts from Professor Jia Li, Shanghai Institute of Materia Medica/Chinese Academy of Sciences. VEGFR2 was purchased from Carna Biosciences (Kobe, Japan).

[2] = tested on: SNU-16 cells; assay: CCK-8 cell proliferation assay, SNU-16; assay type: cell-based; settings: Homo sapiens; SNU-16, CCK-8, Fig. 3
Procedure: (§1) During the logarithmic growth phase, each cell line was seeded in a 96-well tissue culture plate (Thermo Fisher Scientific, Waltham, MA, USA) at a predetermined density in complete medium, attached overnight and treated with compound for the indicated time. The medium was discarded and replaced with 10% CCK-8 (Dojindo, Kumamoto, Japan) in complete medium, then incubated the plates for another 2 h. The OD450 was measured with SpectraMax M5 (Molecular Devices, CA, USA). A background absorbance of ODblank was subtracted from all wells. The survival rate was determined with following formula: Survival rate (%) = ODcompound/ODDMSO × 100%. The IC50 values were calculated by concentration − response curve fitting using the four parameter method.

[3] = tested on: MKN-45 cells; assay: CCK-8 cell proliferation assay, MKN-45; assay type: cell-based; settings: Homo sapiens; MKN-45, CCK-8, Fig. 3
Procedure: as §1

[4] = tested on: MGC-803 cells; assay: CCK-8 cell proliferation assay, MGC-803; assay type: cell-based; settings: Homo sapiens
Procedure: as §1

[5] = tested on: AGS cells; assay: CCK-8 cell proliferation assay, AGS; assay type: cell-based; settings: Homo sapiens, CCK-8, Fig. 3
Procedure: as §1

[6] = tested on: 5 gastric cancer cell lines; assay: CCK-8 cell proliferation assay, panel of 5 gastric cancer cell lines; assay type: cell-based; settings: Homo sapiens; range over SNU-16, MKN-45, MGC-803, SGC-7901, AGS; read-out: IC50 values across 5 gastric cancer cell lines
Procedure: as §1

[7] = tested on: HUVECs; assay: VEGF- or FBS-induced HUVEC proliferation assay (CCK-8); assay type: cell-based, human; settings: for IC50: Homo sapiens, HUVEC
Procedure: as §1
In VEGF-induced HUVEC proliferation assay, HUVECs cells were seeded in a 96-well tissue culture plate at a predetermined density in HUVEC basic medium with 0.5% FBS. After the cells attached, cells were treated with different concentration of TY-011 in the presence of 50 ng/ml VEGF165 (R&D systems, Minneapolis, MN, USA) or 10% FBS. The CCK-8 assay as above was used for determination of cell viability.

[8] = tested on: MGC-803 cells; assay: Cell cycle analysis by flow cytometry, MGC-803; assay type: cell-based, human
Procedure: (§2) Cell cycle distribution was determined by flow cytometry measurement of DNA content after cells were incubated with RNase A (50 μg/ml) and propidium iodide (50 μg/ml). The cellular DNA content was measured on a flow cytometer (Guava EasyCyte 6HT-2 L, Merck Millipore, Billerica, MA, USA). The percentage of each population was analyzed using the InCyte software. At least 20 000 cells were analyzed for each data point.

[9] = tested on: SGC-7901 cells; assay: Cell cycle analysis by flow cytometry, SGC-7901; assay type: cell-based, human
Procedure: as §2

[10] = tested on: HUVECs; assay: HUVEC tube formation assay; assay type: cell-based, human; settings: HUVECs on Matrigel, 6 h
Procedure: HUVECs were seeded onto pre-cooled 96-well tissue culture plate coated with Matrigel™ (BD Biosciences, FranklinLakes, NJ). After the cells attached, the cells were treated by various concentration of TY-011 or equivalent amount of DMSO. The plate was incubated at 37 °C, 5% CO2 humidified atmosphere for 6 h, then cell morphology was captured with a microscopy (Olympus IX73, Tokyo, Japan).

[11] = tested on: MGC-803 xenograft tumor tissues; assay: TUNEL staining of xenograft tumor tissues; assay type: in vivo, BALB/c nu/nu mice; settings: 9 mg/kg
Text: (§3) Female BALB/c nu/nu mice (5–6 weeks, 16–18 g) were obtained from Sino-British SIPPR/BK Lab. Animal Ltd, Shanghai, China, with the certification number of 2008001638201. The animals were housed in specific pathogen-free (SPF) conditions at Key Laboratory of Brain Functional Genomics, Ministry of Education, and were acclimatized for a week prior to use. Human MGC-803 xenografts were established by subcutaneously inoculating 5 × 10^6 cells into nude mice. When the tumors reached a mean group size of 100 ~ 150 mm^3, the mice were randomized into control and treatment groups to receive treatment accordingly. TY-011 was orally administered at 3, 6 and 9 mg/kg once a day for 13 days. […] The tumor growth was recorded with the measurement of length (L) and width (W) by caliper every other day, and calculated as tumor volume (V) = L × W^2/2. Meanwhile, the body weights of mice were recorded. The tumor volume at day n was expressed as relative tumor volume (RTV) according to the following formula: RTV% = (TVn/TV0) ×100%, where TVn is the tumor volume at day n and TV0 is the tumor volume at day 0. The therapeutic effect of treatment was calculated with formula T/C (%) = mean RTV of the treated group/mean RTV of the control group × 100%. […] The tumor regression of individual mouse was defined as the tumor volume at the end was less than the tumor volume when treatment was initiated. […]

[12] = tested on: CD31 (angiogenesis marker) in tumor tissues; assay: CD31 immunohistochemistry of xenograft tumor tissues; assay type: in vivo, BALB/c nu/nu mice; settings: TY-011 treated group vs control group
Text: as §3

[13] = tested on: HUVECs; assay: HUVEC growth inhibition, 6 h, CCK-8; assay type: cell-based, human; settings: various concentrations
Procedure: as §1

T1 sequence (P35968 790-1356 limits assumed): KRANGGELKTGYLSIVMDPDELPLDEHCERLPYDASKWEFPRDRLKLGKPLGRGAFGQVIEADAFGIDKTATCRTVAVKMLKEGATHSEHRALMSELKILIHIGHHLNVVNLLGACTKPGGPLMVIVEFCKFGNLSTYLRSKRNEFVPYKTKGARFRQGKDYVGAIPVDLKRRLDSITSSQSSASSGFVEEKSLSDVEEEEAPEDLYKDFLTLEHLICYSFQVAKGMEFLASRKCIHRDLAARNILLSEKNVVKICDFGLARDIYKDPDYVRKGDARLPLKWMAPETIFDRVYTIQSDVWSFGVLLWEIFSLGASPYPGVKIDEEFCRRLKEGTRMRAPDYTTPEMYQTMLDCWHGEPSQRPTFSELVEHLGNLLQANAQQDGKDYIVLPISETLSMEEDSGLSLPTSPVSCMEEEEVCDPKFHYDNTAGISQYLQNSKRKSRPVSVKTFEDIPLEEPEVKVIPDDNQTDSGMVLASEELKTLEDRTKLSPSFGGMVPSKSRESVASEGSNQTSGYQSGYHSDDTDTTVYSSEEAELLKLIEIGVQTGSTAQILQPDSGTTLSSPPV

`CCc1cc2c(cn1)C(c1ccccc1Cl)=Nc1c(n[nH]c1C)N2` [TY-011, 9-(2-chloro-phenyl)-6-ephyl-1-methyl-2,4-dihydro-2,3,4,7,10-pentaaza-benzo[f]azulene] showed an IC50 [1] of 103 ± 6.2 nM, an IC50 [2] of 90 ± 20 nM and an IC50 [3] of 130 ± 10 nM. It also gave an IC50 ([4]; MGC-803, Table S1, proliferation, read-out: IC50 MGC-803) of 210 nM, an IC50 ([4]; MGC-803, CCK-8, Fig. 3, read-out: IC50) of 190 ± 20 nM and an IC50 [5] of 960 ± 100 nM. The IC50 [6] was 90 to 960 nM, the “IC50 in cells treated with VEGF lower than in cells treated with FBS” value ([7]; 72 h) was 13 fold and the IC50 ([7]; 50 ng/ml VEGF165, 72 h, read-out: VEGF IC50) was 461 ± 61.8 nM. The IC50 ([7]; 10% FBS, 72 h, read-out: FBS IC50) was 6100 ± 16.4 nM, the G2/M phase cells ([8]; MGC-803, 0.2 μM, 12 h (from 26.4%)) was 51.4% and the “cells with >4 N DNA content” value ([8]; MGC-803, 0.2 μM, 48 h) was 39.8%. For the same molecule, the “proportion of cells with >4 N DNA content” value ([8]; MGC-803, 0.4 μM, 24 h (4.3% no treatment)) was 29.5%, the “proportion of G2/M phase cells” value ([8]; MGC-803, 0.4 μM, 24 h (28.8% no treatment)) was 65.0% and the G2/M phase cells ([9]; SGC-7901, 0.5 μM, 12 h (from 31.6%)) was 45.1%. For the same molecule, the “cells with >4 N DNA content” value ([9]; SGC-7901, 0.5 μM, 48 h) was 13.9%, the “proportion of cells with >4 N DNA content” value ([9]; SGC-7901, 1 μM, 24 h (6.7% no treatment)) was 14.7% and the “proportion of G2/M phase cells” value ([9]; SGC-7901, 1 μM, 24 h (34.0% no treatment)) was 78.6%. The “tube meshes (tube formation)” value [10] was “disturbed”, the “apoptosis in tumor tissues (TUNEL)” value [11] was “obvious increase in apoptosis” and the “CD31 staining in tumor tissues” value [12] was “much less than control group”. The “HUVEC proliferation under tube formation treatment condition” value [13] was “didn’t affect HUVEC proliferation”.
